{
  "source": "paper PMC9507378",
  "about": "(Advanced Science, 2022)",
  "key": {"OP9 cells [1]": {"system": "OP9 cells", "assay": "Cellular internalization mechanism of OGP-tFNAs with endocytosis inhibitors", "format": "cell-based", "details": "1 h inhibitor pretreatment in 2% FBS medium then 6 h with OGP-tFNAs-Cy5, 20 μM for Dynasore and Cytochalasin D, flow cytometry, n = 3", "experimental": "Cell culture and treatment: Bone marrow stromal OP9 cells were purchased from\nNational Collection of Authenticated Cell Cultures (Shanghai, China). The cells were\ncultured in α-MEM with 1% penicillin-streptomycin and 20% FBS at 37 ° C in 5%\nCO2. When the cell intensity approached 80%-90%, OP9 cells were recultivated in\ninternalization of tFNAs, and the influence of tFNAs as drug carriers on the cellular\nlabeled with FITC fluorescence. After the cells were treated with tFNAs-Cy5 and\nharvested for flow cytometric analysis (Attune® NxT, Invitrogen, USA) and confocal\nfluorescence microscopy observation (FV3000, Olympus, Japan).\n(Methyl-β-cyclodextrin, MedChemExpress, USA; Dynasore, MedChemExpress, USA;\nNocodazole, MedChemExpress, USA; Amiloride hydrochloride, Abcam, USA;\nCytochalasin D, Abcam, USA) were used to inhibit the clathrin, caveolae,"}, "OP9 cells [2]": {"system": "OP9 cells", "assay": "Apoptosis by flow cytometry (Annexin V-FITC/PI)", "format": "cell-based", "details": "5-FU group, 25 µg mL^−1, 24 h", "experimental": "Cell cycle, senescence and apoptosis detection: Cell cycle and apoptosis were detected via flow cytometric analysis. OP9 cells were cultured in 6-well plates and\ntreatment (25 μg/mL). […] The cell apoptosis was detected using Annexin V-FITC/PI apoptosis detection kit (KeyGEN, Jiangsu, China)."}, "[3]": {"system": "SCF production in OP9 cells", "assay": "SCF expression (immunofluorescence, Western blot)", "format": "cell-based", "details": "25 µg mL^−1 5-FU, 24 h; n = 3", "protocol": "staining buffer (2% FBS in PBS), then immunofluorescent staining was performed for later flow cytometry (PE anti-γ-H2AX, Biolegend, 1:20).\nWestern blotting: The total protein was extracted using Total Protein Extraction Kit (KeyGEN, Jiangsu, China) according to the standard protocol. After protein extraction and boiling denaturation, the proteins were separated using 10-15% SDS-PAGE and transferred to PVDF membranes. Then the samples were blocked with blocking buffer (QuickBlock™ Blocking Buffer, Beyotime Biotechnology, Shanghai, China) for 15min, and then incubated with related primary antibodies (anti-GAPDH, CST, 1:1000; anti-Bcl-2, CST, […]; anti-Bax, CST; anti-Caspase-3, […]\n1:500; anti-γ-H2AX, abcam, 1:5000) overnight at 4 ℃. At the second day, the samples were incubated with related secondary antibodies for 1h and detected using Gel & Blot Imaging system (ChemiDoc MP, Bio-Rad, USA). […]\nanother 24-h 5-FU treatment. […] Finally, the samples were detected using fluorescence confocal microscope (FV3000, Olympus, Japan).\nPlasma pharmacokinetics: Plasma pharmacokinetics experiment was performed to investigate the in vivo metabolism of tFNAs and OGP-tFNAs. tFNAs-Cy5 and OGP-tFNAs-Cy5 were administrated via tail vein injection. […] Finally, the blood samples were detected using the channel of Cy5 fluorescence of Gel & Blot Imaging system (ChemiDoc MP, Bio-Rad, USA). […]"}, "OP9 cells [4]": {"system": "OP9 cells", "assay": "CCK-8 cell viability assay", "format": "cell-based", "details": "48 h, CCK-8, n = 6, tested 6.25 to 100 µg mL^−1, read-out: concentration showing the median inhibitory effect on OP9 cells", "protocol": "macropinocytosis, actin microfilament, and microtubule. The OP9 cells were pretreated with five inhibitors separately in 2% FBS culture media for 1 h, then the culture media was replaced with new culture media simultaneously containing OGP-tFNAs-Cy5 and different inhibitors for another 6 h. After that, the samples were collected for flow cytometric analysis and confocal microscopy observation for fluorescence intensity detection.\nCell viability assay: Cell Counting Kit-8 (CCK-8) assay was applied to detect the cell viability after treatment with tFNAs, OGP and OGP-tFNAs with different […]\nCell cycle, senescence and apoptosis detection: Cell cycle and apoptosis were detected via flow cytometric analysis. […]\ntreatment (25 μg/mL). The cell cycle was detected using cell cycle detection Kit (KeyGEN, Jiangsu, China). […] After that, the samples were rinsed with PBS and incubated with RNase for 30 min in 37℃ water-bath, then incubated with Propidium Iodide (PI) for 30min and detected via flow cytometry. The cell apoptosis was detected using Annexin V-FITC/PI apoptosis detection kit (KeyGEN, Jiangsu, China).\nAfter the cells were collected and resuspended with 500 μL binding buffer, 5 μL Annexin V-FITC and 5 μL PI were added into the binding buffer. After 5-15 min incubation, the samples were detected via flow cytometry. […]"}, "ICR mice": {"system": "ICR mice", "details": "mouse, in vivo, ip, 150 mg/kg", "experimental": "6–8 weeks male ICR mice (Dossy Experimental Animals Co, Ltd., Chengdu, China) were raised in specific pathogen‐free (SPF) environment with stable temperature and 12 h light/dark cycle.\nMyelosuppression induction and systematic drug delivery: The mice were divided\ninto five groups: 1) Control group; 2) Saline + myelosuppression group; 3) tFNAs +\nmyelosuppression group. For myelosuppression groups, the mice were continuously\nintraperitoneal injection (i.p.) for 3 days (days 4-6) for myelosuppression induction.\nFor normal group, the same volume of saline was delivered via tail intravenous\ninjection at days 1-9 and PBS via intraperitoneal injection at days 4-6. At day 10, all\nthe mice were sacrificed for later detections.\nHistological detections: As main hematopoietic organs, femurs and sternums were\ncollected and fixed in 4% paraformaldehyde. After decalcification for 3-4 weeks in\nEDTA decalcifying solution (Servicebio, Wuhan, China), the samples were\ndehydrated and embedded in paraffin. Then, the samples were coronally sectioned\nalong the long axis of the femurs and sternums, then Hematoxylin-Eosin (H&E)\nstaining was performed to observe the histological changes. Meanwhile, as major"}},
  "data": [
    {"smiles": "O=C(N/N=C/c1ccc(O)c(O)c1)c1cc2ccccc2cc1O", "note": "[Dynasore]", "values": [
      {"measurement": "inhibition of internalization of OGP-tFNAs", "setting": "OP9 cells [1]", "result": "more significant inhibition ratios"}
    ]},
    {"smiles": "O=c1[nH]cc(F)c(=O)[nH]1", "note": "[5-FU, 5‐fluorouracil]", "values": [
      {"measurement": "number of dead OP9 cells", "setting": "OP9 cells [2]", "result": "≈ 30%"},
      {"measurement": "reduction of SCF production in OP9 cells", "setting": "[3]", "result": "≈ 50%"},
      {"measurement": "IC50", "setting": "OP9 cells [4]", "result": 25, "unit": "µg/mL"}
    ]},
    {"smiles": "O=P1(N(CCCl)CCCl)NCCCO1", "note": "(stereo not drawn) [cyclophosphamide]", "values": [
      {"measurement": "share of the bone marrow cavity filled by bone marrow cells", "setting": "ICR mice", "result": "20–30%"}
    ]},
    {"smiles": "C=C1[C@@H](C)[C@H]2[C@H](Cc3ccccc3)NC(=O)[C@]23[C@H](OC(C)=O)/C=C/[C@@](C)(O)C(=O)[C@@H](C)C/C=C/[C@H]3[C@@H]1O", "note": "[Cytochalasin D]", "values": [
      {"measurement": "inhibition of internalization of OGP-tFNAs", "setting": "OP9 cells [1]", "result": "more significant inhibition ratios"}
    ]}
  ]
}
